Test results as given in patent US20120077737A1, “HEPATITIS C INHIBITOR COMPOUNDS” (priority 2009, published 2012).
Like-named read-outs stand apart in the source and are kept apart here.

Key:
[1] = system: HCV genotype 1a subgenomic replicon with NS3 resistance mutation D168V; test: HCV replicon RNA replication assay, D168V 1a; type: cell-based, HCV genotype 1a (strain H77), Huh-7 cells; details: Hepatitis C virus, read-out: D168V 1a Ec50 (nM)
[2] = system: HCVPV1b subgenomic replicon (wild type 1b); test: HCV replicon RNA replication assay, wild type 1b; type: cell-based, HCV genotype 1b (Con-1), Huh-7 cells; details: Hepatitis C virus, read-out: WT 1b Ec50
[3] = system: HCV genotype 1a subgenomic replicon with NS3 resistance mutation R155K; test: HCV replicon RNA replication assay, R155K 1a; type: cell-based, HCV genotype 1a (strain H77), Huh-7 cells; details: Hepatitis C virus, Huh-7, 72 h, read-out: R155K 1a Ec50 (nM)
[4] = system: HCVPV1a subgenomic replicon (wild type 1a); test: HCV replicon RNA replication assay, wild type 1a; type: cell-based, HCV genotype 1a (strain H77), Huh-7 cells; details: Hepatitis C virus, read-out: WT 1a Ec50
[5] = system: HCV genotype 1b subgenomic replicon with NS3 resistance mutation D168V; test: HCV replicon RNA replication assay, D168V 1b; type: cell-based, HCV genotype 1b (Con-1), Huh-7 cells; details: Hepatitis C virus, Huh-7, 72 h, read-out: D168V 1b Ec50 (nM)
[6] = Table 1, luciferase replicon, Huh-7, 72 h

Row | Compound | EC50 ([1]; Huh-7, 72 h) | EC50 [2, 6] | EC50 [3] | EC50 [4, 6] | EC50 [5] | EC50 [1] | EC50 ([2]; Table 2, clinical comparators, wildtype genotype 1b) | EC50 ([4]; Table 2, clinical comparators, wildtype genotype 1a)
1 | COc1ccc2c(O[C@@H]3C[C@H]4C(=O)N[C@]5(C(=O)NS(=O)(=O)C6(C)CC6)C[C@H]5/C=C\CCCCC[C@H](NC(=O)c5ccn(CC(F)F)n5)C(=O)N4C3)cc(OC(C)C)nc2c1C [Compound 1001, (2R,6S,12Z,13aS,14aR,16aS)-6-({[1-(2,2-difluoroethyl)-1H-pyrazol-3-yl]carbonyl}amino)-2-{[7-methoxy-8-methyl-2-(propan-2-yloxy)quinolin-4-yl]oxy}-N-[(1-methylcyclopropyl)sulfonyl]-5,16-dioxo-1,2,3,6,7,8,9,10,11,13a,14,15,16,16a-tetradecahydrocyclopropa[e]pyrrolo[1,2-a][1,4]diazacyclopentadecine-14a(5H)-carboxamide] | 0.78 nM | 0.17 nM | 0.96 nM | 0.22 nM | 0.1 nM | – | – | –
2 | COCCn1ccc(C(=O)N[C@H]2CCCCC/C=C\[C@@H]3C[C@@]3(C(=O)NS(=O)(=O)C3(C)CC3)NC(=O)[C@@H]3C[C@@H](Oc4cc(OC(C)C)nc5c(C)c(OC)ccc45)CN3C2=O)n1 [Compound 1002, (2R,6S,12Z,13aS,14aR,16aS)-6-({[1-(2-methoxyethyl)-1H-pyrazol-3-yl]carbonyl}amino)-2-{[7-methoxy-8-methyl-2-(propan-2-yloxy)quinolin-4-yl]oxy}-N-[(1-methylcyclopropyl)sulfonyl]-5,16-dioxo-1,2,3,6,7,8,9,10,11,13a,14,15,16,16a-tetradecahydrocyclopropa[e]pyrrolo[1,2-a][1,4]diazacyclopentadecine-14a(5H)-carboxamide] | 2.8 nM | 0.32 nM | 1.5 nM | 0.38 nM | 0.12 nM | – | – | –
3 | Cc1c(Cl)ccc2c(O[C@@H]3C[C@H]4C(=O)N[C@]5(C(=O)NS(=O)(=O)C6(C)CC6)C[C@H]5/C=C\CCCCC[C@H](NC(=O)c5ccn(C)n5)C(=O)N4C3)cc(OC(C)C)nc12 [Compound 1003, (2R,6S,12Z,13aS,14aR,16aS)-2-{[7-chloro-8-methyl-2-(propan-2-yloxy)quinolin-4-yl]oxy}-N-[(1-methylcyclopropyl)sulfonyl]-6-{[(1-methyl-1H-pyrazol-3-yl)carbonyl]amino}-5,16-dioxo-1,2,3,6,7,8,9,10,11,13a,14,15,16,16a-tetradecahydrocyclopropa[e]pyrrolo[1,2-a][1,4]diazacyclopentadecine-14a(5H)-carboxamide] | 6.9 nM | 0.21 nM | 7.7 nM | 0.24 nM | 0.12 nM | – | – | –
4 | COc1ccc2c(O[C@@H]3C[C@H]4C(=O)N[C@]5(C(=O)NS(=O)(=O)C6(C)CC6)C[C@H]5/C=C\CCCCC[C@H](NC(=O)c5ccn(CCF)n5)C(=O)N4C3)cc(OC(C)C)nc2c1C [Compound 1004, (2R,6S,12Z,13aS,14aR,16aS)-6-({[1-(2-fluoroethyl)-1H-pyrazol-3-yl]carbonyl}amino)-2-{[7-methoxy-8-methyl-2-(propan-2-yloxy)quinolin-4-yl]oxy}-N-[(1-methylcyclopropyl)sulfonyl]-5,16-dioxo-1,2,3,6,7,8,9,10,11,13a,14,15,16,16a-tetradecahydrocyclopropa[e]pyrrolo[1,2-a][1,4]diazacyclopentadecine-14a(5H)-carboxamide] | 1.8 nM | 0.27 nM | 1.3 nM | 0.24 nM | 0.15 nM | – | – | –
5 | COc1ccc2c(O[C@@H]3C[C@H]4C(=O)N[C@]5(C(=O)NS(=O)(=O)C6(C)CC6)C[C@H]5/C=C\CCCCC[C@H](NC(=O)c5ccn(CC(F)(F)F)n5)C(=O)N4C3)cc(OC(C)C)nc2c1C [Compound 1005, (2R,6S,12Z,13aS,14aR,16aS)-2-{[7-methoxy-8-methyl-2-(propan-2-yloxy)quinolin-4-yl]oxy}-N-[(1-methylcyclopropyl)sulfonyl]-5,16-dioxo-6-({[1-(2,2,2-trifluoroethyl)-1H-pyrazol-3-yl]carbonyl}amino)-1,2,3,6,7,8,9,10,11,13a,14,15,16,16a-tetradecahydrocyclopropa[e]pyrrolo[1,2-a][1,4]diazacyclopentadecine-14a(5H)-carboxamide] | 1.4 nM | 0.16 nM | 0.85 nM | 0.18 nM | 0.17 nM | – | – | –
6 | COc1ccc2c(O[C@@H]3C[C@H]4C(=O)N[C@]5(C(=O)NS(=O)(=O)C6(C)CC6)C[C@H]5/C=C\CCCCC[C@H](NC(=O)c5cnn(C)n5)C(=O)N4C3)cc(OC(C)C)nc2c1C [Compound 1006, (2R,6S,12Z,13aS,14aR,16aS)-2-{[7-methoxy-8-methyl-2-(propan-2-yloxy)quinolin-4-yl]oxy}-N-[(1-methylcyclopropyl)sulfonyl]-6-{[(2-methyl-2H-1,2,3-triazol-4-yl)carbonyl]amino}-5,16-dioxo-1,2,3,6,7,8,9,10,11,13a,14,15,16,16a-tetradecahydrocyclopropa[e]pyrrolo[1,2-a][1,4]diazacyclopentadecine-14a(5H)-carboxamide] | 9.6 nM | 0.18 nM | 2.2 nM | 0.19 nM | 0.17 nM | – | – | –
7 | COc1ccc2c(O[C@@H]3C[C@H]4C(=O)N[C@]5(C(=O)NS(=O)(=O)C6(C)CC6)C[C@H]5/C=C\CCCCC[C@H](NC(=O)c5ccn(C)n5)C(=O)N4C3)cc(OC(C)C)nc2c1C [Compound 1007, (2R,6S,12Z,13aS,14aR,16aS)-2-{[7-methoxy-8-methyl-2-(propan-2-yloxy)quinolin-4-yl]oxy}-N-[(1-methylcyclopropyl)sulfonyl]-6-{[(1-methyl-1H-pyrazol-3-yl)carbonyl]amino}-5,16-dioxo-1,2,3,6,7,8,9,10,11,13a,14,15,16,16a-tetradecahydrocyclopropa[e]pyrrolo[1,2-a][1,4]diazacyclopentadecine-14a(5H)-carboxamide] | 4.5 nM | 0.2 nM | 1.7 nM | 0.25 nM | 0.18 nM | – | – | –
8 | Cc1c(F)ccc2c(O[C@@H]3C[C@H]4C(=O)N[C@]5(C(=O)NS(=O)(=O)C6(C)CC6)C[C@H]5/C=C\CCCCC[C@H](NC(=O)c5ccn(C)n5)C(=O)N4C3)cc(OC(C)C)nc12 [Compound 1008, (2R,6S,12Z,13aS,14aR,16aS)-2-{[7-fluoro-8-methyl-2-(propan-2-yloxy)quinolin-4-yl]oxy}-N-[(1-methylcyclopropyl)sulfonyl]-6-{[(1-methyl-1H-pyrazol-3-yl)carbonyl]amino}-5,16-dioxo-1,2,3,6,7,8,9,10,11,13a,14,15,16,16a-tetradecahydrocyclopropa[e]pyrrolo[1,2-a][1,4]diazacyclopentadecine-14a(5H)-carboxamide] | 6.6 nM | 0.35 nM | 1.9 nM | 0.24 nM | 0.2 nM | – | – | –
9 | COCc1ccc(C(=O)N[C@H]2CCCCC/C=C\[C@@H]3C[C@@]3(C(=O)NS(=O)(=O)C3CC3)NC(=O)[C@@H]3C[C@@H](Oc4cc(OC(C)C)nc5c(C)c(OC)ccc45)CN3C2=O)s1 [Compound 1009, (2R,6S,12Z,13aS,14aR,16aS)-N-(cyclopropylsulfonyl)-2-{[7-methoxy-8-methyl-2-(propan-2-yloxy)quinolin-4-yl]oxy}-6-({[5-(methoxymethyl)thiophen-2-yl]carbonyl}amino)-5,16-dioxo-1,2,3,6,7,8,9,10,11,13a,14,15,16,16a-tetradecahydrocyclopropa[e]pyrrolo[1,2-a][1,4]diazacyclopentadecine-14a(5H)-carboxamide] | 7.2 nM | 0.46 nM | 3.6 nM | 0.43 nM | 0.24 nM | – | – | –
10 | COc1ccc2c(O[C@@H]3C[C@H]4C(=O)N[C@]5(C(=O)NS(=O)(=O)C6CC6)C[C@H]5/C=C\CCCCC[C@H](NC(=O)c5ccn(CC(F)(F)F)n5)C(=O)N4C3)cc(OC(C)C)nc2c1C [Compound 1012, (2R,6S,12Z,13aS,14aR,16aS)-N-(cyclopropylsulfonyl)-2-{[7-methoxy-8-methyl-2-(propan-2-yloxy)quinolin-4-yl]oxy}-5,16-dioxo-6-({[1-(2,2,2-trifluoroethyl)-1H-pyrazol-3-yl]carbonyl}amino)-1,2,3,6,7,8,9,10,11,13a,14,15,16,16a-tetradecahydrocyclopropa[e]pyrrolo[1,2-a][1,4]diazacyclopentadecine-14a(5H)-carboxamide] | 1.9 nM | 0.24 nM | – | 0.29 nM | 0.31 nM | – | – | –
11 | COc1ccc2c(O[C@@H]3C[C@H]4C(=O)N[C@]5(C(=O)NS(=O)(=O)C6(C)CC6)C[C@H]5/C=C\CCCCC[C@H](NC(=O)c5ccn(C)n5)C(=O)N4C3)cc(OCC(F)(F)F)nc2c1C [Compound 1029, (2R,6S,12Z,13aS,14aR,16aS)-2-{[7-methoxy-8-methyl-2-(2,2,2-trifluoroethoxy)quinolin-4-yl]oxy}-N-[(1-methylcyclopropyl)sulfonyl]-6-{[(1-methyl-1H-pyrazol-3-yl)carbonyl]amino}-5,16-dioxo-1,2,3,6,7,8,9,10,11,13a,14,15,16,16a-tetradecahydrocyclopropa[e]pyrrolo[1,2-a][1,4]diazacyclopentadecine-14a(5H)-carboxamide] | 9.5 nM | – | 1.5 nM | – | 0.25 nM | – | – | –
12 | CC[C@@H]1C[C@]1(NC(=O)[C@@H]1C[C@@H]2CN1C(=O)[C@H](C(C)(C)C)NC(=O)OCC(C)(C)CCCCc1cccc3c1CN(C3)C(=O)O2)C(=O)NS(=O)(=O)C1CC1 [reference compound] | – | – | – | – | – | 3900 nM | 1.2 nM | 0.4 nM
